The record followed here is patent publication US4230712A, “7-Methyl-8β-lower alkyl or 7-methyl-8-lower alkyl B/C cis or trans morphinan-6-one compounds and therapeutic method of treating pain employing them” (Miles Laboratories, Inc., priority 1978, dated 1980).

“Also recorded” adds a separate entry of the source. Where a name gives a salt, the structure may show the parent alone.

Assay [1] has as its system rats. Kind of assay: narcotic antagonist activity, modified rat tail flick test against morphine. Format: in vivo, male albino Wistar rats. On the set-up: AD50: unit not given here. The conditions noted are these: for narcotic antagonist activity / analgesic (agonist)/narcotic antagonist activity profile: in words; for AD50: rat tail flick, dose inhibiting the morphine (ED80 dose s.c.) effect by 50%, IA @ dose = inactive at that dose. How it is done:
(B) Narcotic antagonist activity in rats (modified rat tail flick test).
TEST B. EVALUATION OF NARCOTIC ANTAGONIST ACTIVITY
The narcotic antagonist effects of test compounds were determined by a modification of the rat tail flick procedure of Harris and Pierson (J. Pharmacol. Exp. Ther. 143:141 [1964]).
Male albino Wistar rats (100-120 g) were used for this study. A rat's tail is so placed so as to cover a photocell. Heat is applied by a lamp in a reflector with a timer being connected to the lamp and photocell so that the timer goes on when the light is turned on and is turned off when the photocell is uncovered. A rheostat, incorporated into a heating lamp is used to adjust the intensity of the light falling on the tail of the rat such that the rat's control reaction time is from two to four seconds. Animals with a control reaction time outside this range are rejected. The rheostat adjustment is made only if a significant proportion (more than 2 out of every 10 rats) of the reaction times are outside the range of two to four seconds. Groups of five rats were used each time, and two control times were determined at 60 and 30 minutes prior to subcutaneous injection of the drug.
Thirty minutes after the last control run the test drug was given intraperitoneally. This was followed ten minutes later by an ED80 dose of morphine subcutaneously. The animals were retested at 20 minutes after the morphine injection. Control animals were given vehicle and morphine only. The data were calculated as follows: [formula]
The data were plotted on log-probit paper and AD50 values, i.e., the dose required to inhibit the morphine effect by 50% within 95% confidence limits, were determined by the method of Litchfield and Wilcoxon.
(In general: In hot-plate and tail-flick tests a longer latency is read as antinociception.)

For assay [2], the system named is mice. Kind of assay: acetic acid mouse writhing test (analgesic effect, s.c.). Format: in vivo, male CD-1 mice. To be noted: for analgesic activity: in words; for ED50: sc, mouse acetic acid writhing, s.c., dose reducing the number of writhes by 50%, IA @ dose = inactive at that dose, read-out: ED50; for duration of action: footnote ** to the ED50 value. How it is done:
(A) Analgesic effects upon mice (acetic acid writhing test).
TEST A. ACETIC ACID MOUSE WRITHING TEST
The analgesic effects of test compounds were determined in mice by use of the acetic acid writhing test described by B. J. R. Whittle, Brit. J. Pharmacol., 22:246 (1964). In this test at least three groups of five male CD-1 mice (18-22 g) each were given subcutaneous doses of the test drug dissolved in either distilled water or distilled water acidified with HCl depending on the solubility of the compound. In all cases, 0.4 milliliter of a 0.5% V/V acetic acid in distilled water solution was administered intraperitoneally 15 minutes post drug. The number of writhes in a 20 min. interval beginning 5 minutes after the acetic acid injection were determined and compared with the number of writhes in control groups which had received only acetic acid.
Percent inhibition of writhing was calculated as: [formula]
The ED50 dose, i.e., the dose required to reduce the number of writhes by 50%, was determined graphically from a plot of % inhibition as a probit versus log dose. Confidence limits of 95% were calculated on the basis of those results falling in the range 16-84% inhibition. See Litchfield, J. T. and Wilcoxon, F., J. Pharmacol. Exp. Ther., 96, 99-113, (1949).
In general terms: Writhing tests count abdominal constrictions after an irritant is injected.

Where [3] appears, read: conclusion from Tests A and B, Hydrochloride.
[4] abbreviates: more potent than TR-5222 by a factor.

`COc1ccc2c(c1)[C@]13CCN(CC4CC4)[C@H](C2)[C@@H]1[C@@H](C)CC(=O)C3` [TR-5119, 17-Cyclopropylmethyl-3-Methoxy-8β-Methylmorphinan-6-one]: in assay [1], the narcotic antagonist activity entry is “good activity” and the AD50 is recorded as 1.45. In addition, in assay [2], the analgesic activity result is listed as “good activity” and the median effective dose (ED50) (in general, the dose at which the effect has come halfway, by size or by number of responders) amounted to 0.24 mg/kg.
Consider `C[C@H]1CC(=O)C[C@]23CCN(CC4CCC4)[C@H](Cc4ccc(O)cc42)[C@H]13.Cl` [TR-5130, 17-Cyclobutylmethyl-3-hydroxy-8β-methylmorphinan-6-one Hydrochloride], for which the “analgesic (agonist)/narcotic antagonist activity profile” value in assay [1] (conclusion from Tests A and B) is given as “mixed agonist/antagonist activity”. The AD50 in assay [1] is recorded as 1.05. Also, the 50% effective dose (ED50) in assay [2] worked out at 0.11 mg/kg.
Regarding `COc1ccc2c(c1)[C@]13CCN(CC4CCC4)[C@H](C2)[C@@H]1[C@@H](C)CC(=O)C3.Cl` [TR-5132, 17-Cyclobutylmethyl-3-methoxy-8β-methylmorphinan-6-one Hydrochloride], in assay [1], the narcotic antagonist activity result is reported as “good activity” and the AD50 is reported as 6.4. In addition, in assay [2], the analgesic activity entry is listed as “good activity” and the ED50 was 0.54 mg/kg.
With `COc1ccc2c(c1)[C@]13CCN(CC4CCC4)[C@H](C2)[C@@H]1CCC(=O)C3.Cl` [TR-5148, 17-Cyclobutylmethyl-3-methoxymorphinan-6-one Hydrochloride, reference compound], in assay [1], the narcotic antagonist activity entry is recorded as “does not exhibit activity as a narcotic antagonist” and the AD50 entry is “IA @ 10”. Also, in assay [2], the analgesic activity entry is listed as “potent analgesic” and the ED50 was 0.22 mg/kg.
`COc1ccc2c(c1)[C@]13CCN(CC4CC4)[C@H](C2)[C@@H]1CCC(=O)C3` [TR-5152, 17-Cyclopropylmethyl-3-methoxymorphinan-6-one Hydrochloride, reference compound] gave an AD50 in assay [1] of 5.4. Further, the ED50 in assay [2] worked out at 0.24 mg/kg.
For the molecule `Cl.O=C1CC[C@H]2[C@H]3Cc4ccc(O)cc4[C@@]2(CCN3CC2CCC2)C1` [TR-5153, 17-Cyclobutylmethyl-3-hydroxymorphinan-6-one Hydrochloride, reference compound], the “analgesic (agonist)/narcotic antagonist activity profile” value in assay [1] (setting [3]) is recorded as “pure agonist; also recorded: pure analgesic”. Further, in assay [1], the AD50 result is “IA @ 10”. In assay [2], the ED50 amounted to 0.017 mg/kg.
As for `O=C1CC[C@H]2[C@H]3Cc4ccc(O)cc4[C@@]2(CCN3CC2CC2)C1` [TR-5160, 17-Cyclopropylmethyl-3-hydroxy morphinan-6-one, reference compound], in assay [1], the AD50 was determined as 2.3. In assay [2], the ED50 was determined as 1.02 mg/kg.
Regarding `COc1ccc2c(c1)[C@]13CCN(CC4CC4)[C@H](C2)[C@@H]1[C@@H](C)[C@H](C)C(=O)C3` [TR-5188, 17-Cyclopropylmethyl-7α,8β-dimethyl-3-methoxy-morphinan-6-oneHydrochloride], the “analgesic (agonist)/narcotic antagonist activity profile” value in assay [1] (conclusion from Tests A and B) is recorded as “mixed analgesic/narcotic antagonist”. The molecule also displayed an AD50 in assay [1] of 4.7. The ED50 in assay [2] came out at 1.03 mg/kg.
On to `C[C@@H]1[C@H]2[C@H]3Cc4ccc(O)cc4[C@@]2(CCN3CC2CCC2)CC(=O)[C@H]1C` [TR-5195, 17-Cyclobutylmethyl-7α,8β-dimethyl-3-hydroxymorphinan-6-one], for which the “analgesic (agonist)/narcotic antagonist activity profile” value in assay [1] (conclusion from Tests A and B) is “analgesic and narcotic antagonist activity”. The same molecule displayed an AD50 in assay [1] of 2.0. The median effective dose (ED50) in assay [2] is 0.78 mg/kg.
Molecule `C[C@@H]1[C@H]2[C@H]3Cc4ccc(O)cc4[C@@]2(CCN3CC2CC2)CC(=O)[C@H]1C` [TR-5196, 17-Cyclopropylmethyl-7α,8β-dimethyl-3-hydroxy-morphinan-6-one] came in with an AD50 in assay [1] of 0.12. The ED50 in assay [2] is 7.8 mg/kg.
Take `CC[C@H]1CC(=O)C[C@]23CCN(CC4CCC4)[C@H](Cc4ccc(O)cc42)[C@H]13.Cl` [TR-5200, 17-Cyclobutylmethyl-8β-ethyl-3-hydroxy-morphinan-6-one Hydrochloride]: in assay [1], the narcotic antagonist activity result is “potent activity” and the AD50 is recorded as 0.32. Further, in assay [2], the analgesic activity result is “potent activity” and the ED50 was 0.21 mg/kg.
Take `CCC[C@H]1CC(=O)C[C@]23CCN(CC4CCC4)[C@H](Cc4ccc(O)cc42)[C@H]13.Cl` [TR-5204, 17-Cyclobutylmethyl-3-hydroxy-8β-n-propylmorphinan-6-one Hydrochloride]: the “analgesic (agonist)/narcotic antagonist activity profile” value in assay [1] (conclusion from Tests A and B) is “mixed analgesic/narcotic antagonist”. The same molecule came in with an AD50 in assay [1] of 3.10. Moreover, the “narcotic antagonist potency relative to TR-5223” value in assay [1] (vs TR-5223) is given as “substantially more potent”. The ED50 in assay [2] came to 0.43 mg/kg. Moreover, the “analgesic potency relative to TR-5223” value in assay [2] (vs TR-5223) is “substantially more potent”.
`COc1ccc2c(c1)[C@]13CCN(CC4CC4)[C@H](C2)[C@H]1C[C@@H](C)C(=O)C3` [TR-5205, 17-Cyclopropylmethyl-3-methoxy-7β-methyl-isomorphinan-6-one Hydrochloride]: the AD50 in assay [1] was determined as 1.2. In addition, the ED50 in assay [2] is over 15 mg/kg.
Consider `O=C1CC[C@@H]2[C@H]3Cc4ccc(O)cc4[C@@]2(CCN3CC2CC2)C1` [TR-5222, 17-Cyclopropylmethyl-3-hydroxy-isomorphinan-6-one Hydrochloride, reference compound], for which the “analgesic (agonist)/narcotic antagonist activity profile” value in assay [1] (conclusion from Tests A and B) is “mixed analgesic and narcotic antagonist activity”. This molecule returned an AD50 in assay [1] of 0.78. Besides, in assay [2], the “duration of action” value is “short acting” and the ED50 amounted to 3.11 mg/kg.
Consider `O=C1CC[C@@H]2[C@H]3Cc4ccc(O)cc4[C@@]2(CCN3CC2CCC2)C1` [TR-5223, 17-Cyclobutylmethyl-3-hydroxy-isomorphinan-6-one Hydrochloride, reference compound], for which the “analgesic (agonist)/narcotic antagonist activity profile” value in assay [1] (setting [3]) was “mixed agonist/antagonist activity; also recorded: mixed analgesic/narcotic antagonist activity”. In assay [1], this molecule displayed an AD50 of 5.0. Further, in assay [1] (vs TR-5130, conclusion from Tests A and B), the “mixed agonist/antagonist activity relative to TR-5130” value is “substantially less than that of TR-5130”. The “narcotic antagonist potency relative to TR-5200” value in assay [1] (vs TR-5200) is “significantly less potent”. Further, in assay [2], the 50% effective dose (ED50) came out at 0.94 mg/kg. Besides, in assay [2] (vs TR-5200), the “analgesic potency relative to TR-5200” value was “significantly less potent”.
With `C[C@@H]1C[C@@H]2[C@H]3Cc4ccc(O)cc4[C@@]2(CCN3CC2CC2)CC1=O` [TR-5225, 17-Cyclopropylmethyl-3-hydroxy-7β-methyl-isomorphinan-6-one Hydrobromide], the “narcotic antagonist potency relative to TR-5222” value in assay [1] (setting [4]) is recorded as “approximately 2”. In addition, in assay [1], the AD50 is recorded as 0.48. Further, the “narcotic antagonist potency relative to TR-5205” value in assay [1] (vs TR-5205) is “approximately twice as potent”. Further, in assay [2], the “duration of action” value is recorded as “short acting” and the ED50 is 0.72 mg/kg. In addition, the “analgesic potency relative to TR-5222” value in assay [2] (setting [4]) is given as “greater than four”. Also, the “analgesic potency relative to TR-5205” value in assay [2] (vs TR-5205) is listed as “much more potent”.
Take `COc1ccc2c(c1)[C@]13CCN(CC4CC4)[C@H](C2)[C@H]1[C@H](C)[C@@H](C)C(=O)C3` [TR-5331, 17-Cyclopropylmethyl-7β,8α-dimethyl-3-methoxy-isomorphinan-6-one Hydrochloride]: in assay [1], the narcotic antagonist activity result is “essentially inactive” and the AD50 is reported as over 10. For the same molecule, in assay [2], the analgesic activity entry was “essentially inactive” and the ED50 was over 10 mg/kg.
As for `COc1ccc2c(c1)[C@]13CCN(CC4CCC4)[C@H](C2)[C@H]1[C@H](C)[C@@H](C)C(=O)C3` [TR-5332, 17-Cyclobutylmethyl-7β,8α-dimethyl-3-methoxy-isomorphinan-6-one Hydrochloride], the AD50 in assay [1] is over 10. Besides, the 50% effective dose (ED50) in assay [2] is over 10 mg/kg.
